Several values for one entry are separate records, joined by “and”; a condition that tells them apart may be missing. Identical values can stand only once.
How the values were obtained:
[1] = test system: endometrium; test: Antiproliferative action of antiprogestins on the endometrium in estrogen-replaced, ovariectomized cynomolgus monkeys (Example 2); type: in vivo; conditions: biopsy day 30; 1 or 3 mg/kg im daily days 1-30; estradiol capsule sc
[2] = test system: ovariectomized cynomolgus monkeys; test: Withdrawal menses after sequential estradiol and progesterone therapy without versus with antiprogestin treatment (menstrual challenges A and B); type: in vivo
Excerpt: 30 ovariecomized cynomolgus monkeys were studied intensively over 12 weeks. Primates in Group I (N=5 each) received only the vehicles used for hormone delivery in Groups II-VI. Monkeys in Group II received estradiol at physiologic levels throughout (days 1 to 81) via a sc silastic implant, as well as two separate courses of progesterone at physiologic levels via a sc silastic implant (days 28 to 35 and 67 to 74). Groups III-VI received the same sequential regimen of estradiol and progesterone as Group II, but in addition were given an antiprogestin im on alternate days 39 to 67: Group III, mifepristone (RU 486) 2.0 mg/kg; Group IV, mifepristone 20.0 mg/kg; Group V, onapristone (ZK 299) 2.0 mg/kg; and Group VI, onapristone 20.0 mg/kg. The two menstrual challenge tests (A and B) were defined as the six days immediately after withdrawal of progesterone treatment (A on days 36 to 41 and B on days 75 to 80).
The protocol thus provided two periods of estrogen-only HRT treatment, one without antiprogestin followed by another with antiprogestin. Each of these two periods was followed by short-term progesterone treatment which provided a measurement of the effects on bleeding of the antiprogestin during the estrogen HRT treatment.
(§1) The monkeys were randomly distributed into six treatment group preparations (n=5 each). Group I (control) was treated with the vehicle only. One empty silastic implant was placed sc surgically from study day 1 to 81; this controlled for estradiol treatment. Another empty silastic implant was inserted sc from days 28 to 35 and from days 67 to 74 and controlled for progesterone treatment. One ml of the antiprogestin vehicle was administered im on alternate days (39 to 67). Group II received continuous estradiol progesterone at two intervals but no antiprogestins. This experimental design allowed two menstrual challenges (A and B). As described below (Groups III-VI), menstrual challenge A was without antiprogestin exposure; whereas B was with antiprogestin treatment. Group III monkeys received the sequential estradiol and progesterone regimens as in Group II but also RU 486 at 2.0 mg/kg on alternate days for four weeks (days 39 to 67). For Group IV, the same treatment occurred, except that the RU 486 dose was elevated by ten-fold (20.0 mg/kg). Similarly, primates in Groups V and VI were injected with onapristone at 2.0 and 20.0 mg/kg, respectively.
(§2) In all treatment groups, observations for menstrual bleeding were made daily by visual inspection of the vaginal labia. Femoral blood collections (4.0 ml) were taken under ketamine-induced anesthesia (10 mg/kg) on alternate days and endometrial biopsies (by hysterotomy) were obtained on days 53 and 70. Endometrial biopsies were placed in formalin […] and processed for histologic evaluation by a clinical pathologist. Thickness of the endometrial tissues was measured with an ocular micrometer to determine the depth of the endometrium at its point of maximal thickness from the myometrial unction to the epithelial layer at the lumenal surface. Endometrial status was evaluated qualitatively and classified according to the following score: atrophic:O; early proliferative: 1; late proliferative:2; interval:3; early secretory:4; and late secretory:5.

[3] = test system: endometrial tissues; test: Histologic evaluation of primate endometrial tissues on days 53 and 70 (Example 1); type: in vivo, cynomolgus monkeys; conditions: for Endometrial Score: score 0-atrophic to 5-secretory; for Thickness (mm): mean ± SD; for thicknesses of endometrial tissues: day 70, Groups III-VI (2.0 and 20.0 mg/kg together)
Excerpt: Additional data were collected by measurements of estradiol, progesterone and cortisol, as well as each antiprogestin in serum drawn on alternate days (1 to 81). Also, endometrial response was examined histologically in biopsy specimens collected on days 53 and 70, both to measure thickness of endometrial tissue (i.e., anti-proliferative response) and to assess the endometrial tissue qualitatively (atrophic, proliferative, or secretory, etc.).
as §1, §2

[4] = 20.0 mg/kg im on alternate days 39-67, with estradiol + progesterone
[5] = Menstrual Challenge A, withdrawal interval days 36-41, antiprogestins: none (baseline before antiprogestin), groups later given 2 mg/kg
[6] = Menstrual Challenge A, withdrawal interval days 36-41, antiprogestins: none (baseline before antiprogestin), groups later given 20 mg/kg
[7] = Menstrual Challenge B, withdrawal interval days 75-80, estradiol + progesterone + antiprogestin 2 mg/kg im on alternate days 39-67
[8] = Menstrual Challenge B, withdrawal interval days 75-80, estradiol + progesterone + antiprogestin 20 mg/kg im on alternate days 39-67
[9] = Day 53, antiprogestin 2.0 mg/kg
[10] = Day 53, antiprogestin 20.0 mg/kg
[11] = Day 53, estradiol + progesterone + antiprogestin 2.0 mg/kg im alternate days 39-67
[12] = Day 53, estradiol + progesterone + antiprogestin 20.0 mg/kg im alternate days 39-67
[13] = Day 70, antiprogestin 2.0 mg/kg
[14] = Day 70, antiprogestin 20.0 mg/kg
[15] = Day 70, estradiol + progesterone + antiprogestin 2.0 mg/kg im alternate days 39-67
[16] = Day 70, estradiol + progesterone + antiprogestin 20.0 mg/kg im alternate days 39-67

| Structure (SMILES) | classification of endometrial specimens (developmental stage) [1] | bleeding outcome during menstrual challenge B [2, 4] | Incidence of Bleeding, Days [2, 5] | Incidence of Bleeding, Days [2, 6] | Incidence of Bleeding, Days [2, 7] | Incidence of Bleeding, Days ([2]; Menstrual Challenge B, withdrawal interval days 75-80, estradiol + progesterone + antiprogestin 2 mg/kg im on alternate days 39-67, listed as ONA) | Incidence of Bleeding, Days [2, 8] | Endometrial Score [3, 9] | Endometrial Score [3, 10] | Thickness (mm) [3, 11] | Thickness (mm) [3, 12] | Endometrial Score [3, 13] | Endometrial Score [3, 14] | Thickness (mm) [3, 15] | Thickness (mm) [3, 16] | histological evaluation of endometrium ([3]; Group V, 2.0 mg/kg) | thicknesses of endometrial tissues [3] | bleeding outcome during menstrual challenge B ([2]; 2.0 mg/kg im on alternate days 39-67, with estradiol + progesterone) |
| --- | --- | --- | --- | --- | --- | --- | --- | --- | --- | --- | --- | --- | --- | --- | --- | --- | --- | --- |
| CN(C)c1ccc([C@H]2C[C@]3(C)[C@@H](CC[C@]3(O)CCCO)[C@@H]3CCC4=CC(=O)CCC4=C32)cc1 [onapristone, 1β-(4-dimethylaminophenyl)-17-hydroxy-17β-(3-hydroxypropyl)-13-methyl-4,9-gonadien-3-one] | interval | complete amenorrhea | 9/30 | 9/30 | three | 3/30 | 0/30 | 3.8 | 3.6 | 2.6 ± 0.2 mm | 2.2 ± 0.1 mm | 4.0 | 3.0 | 1.6 mm and 1.6 ± 0.1 mm | 1.7 ± 0.1 mm | well-developed secretory glands | approximately 1.5 mm | – |
| C[C@]12C[C@@H]3c4ccc(-c5ccc(C#N)cc5)cc4C[C@]45CCC(=O)C=C4CC[C@@H]([C@H]35)[C@@H]1CC[C@@]2(O)/C=C/CO [ZK136798] | interval | – | – | – | – | – | – | – | – | – | – | – | – | – | – | – | – | – |
| CC#C[C@]1(O)CC[C@H]2[C@@H]3CCC4=CC(=O)CCC4=C3[C@@H](c3ccc(N(C)C)cc3)C[C@@]21C [mifepristone, 11β-(4-dimethylaminophenyl)-17β-hydroxy-1-propinyl-4,9estradien-3-one] | proliferative | complete amenorrhea | 13/30 | 12/30 | 0/30 | – | 0/30 | 3.6 | 3.8 | 2.5 ± 0.2 mm | 2.2 ± 0.2 mm | 2.4 | 2.8 | 1.8 ± 0.2 mm | 1.3 ± 0.1 mm | – | approximately 1.5 mm | complete amenorrhea |

Reference: patent US20060014728A1, “Hormone replacement therapy” (priority 1996, published 2006)
